Patent publication US20040097595A1, “Phthalamide derivatives, insecticides for agricultural and horticultural use and method for application thereof” (priority 2001, published 2004)

Columns and labels:
[1] = test system: Diamond Back Moth (Plutella xylostella); assay: Test Example 1: insecticidal effect on diamond back moth, Chinese cabbage seedling with eggs immersed in liquid chemical; format: in vivo; details: eggs on Chinese cabbage seedling immersed about 30 seconds, six days after immersion, 25° C.
From the text: Insecticidal Effect on Diamond Back Moth (Plutella xylostella)
Adult diamond back moths were released and allowed to oviposit on a Chinese cabbage seedling. Two days after the release, the seedling having the eggs deposited thereon was immersed for about 30 seconds in a liquid chemical prepared by diluting a preparation containing each compound listed in Table 1 or 2 as an active ingredient to adjust the prescribed concentration. After air-dryness, it was allowed to stand in a room thermostatted at 25° C. Six days after the immersion, the hatched insects were counted. The mortality was calculated according to the following equation and the insecticidal effect was judged according to the criterion shown below. The test was carried out with triplicate groups of 10 insects. [formula]

[2] = test system: Common Cutworm (Spodoptera litura); assay: Test Example 2: insecticidal effect on common cutworm, cabbage leaf immersion; format: in vivo; details: cabbage leaf immersed, second-instar larvae, eight days after inoculation, 25° C.
From the text: Insecticidal Effect on Common Cutworm (Spodoptera litura)
A piece of cabbage leaf (cultivar; Shikidori) was immersed for about 30 seconds in a liquid chemical prepared by diluting a preparation containing each compound listed in Table 1 or 2 as an active ingredient to adjust the prescribed concentration. After air-dryness, it was placed in a plastic Petri dish with a diameter of 9 cm and inoculated with second-instar larvae of common cutworm, after which the dish was closed and then allowed to stand in a room thermostatted at 25° C. Eight days after the inoculation, the dead and alive were counted. The mortality was calculated according to the following equation and the insecticidal effect was judged according to the criterion shown in Test Example 1. The test was carried out with triplicate groups of 10 insects. [formula]

SMILES | Test Example 1 insecticidal effect (mortality grade) ([1]; 5 ppm) | Test Example 1 insecticidal effect (mortality grade) ([1]; 50 ppm) | Test Example 2 insecticidal effect (mortality grade) ([2]; 5 ppm) | Test Example 2 insecticidal effect (mortality grade) ([2]; 50 ppm)
CSCC(C)(C)NC(=O)c1c(I)cccc1C(=O)Nc1ccc(OC(F)(F)C(F)OC(F)(F)F)cc1Cl (stereo not shown) [Compound 1-74] | A (Mortality 100%) | A (Mortality 100%) | E (Mortality 49-0%) | A (Mortality 100%)
C[S+]([O-])CC(C)(C)NC(=O)c1c(I)cccc1C(=O)Nc1ccc(OC(F)F)c(Cl)c1Cl (stereo not shown) [Compound 1-44] | A (Mortality 100%) | A (Mortality 100%) | E (Mortality 49-0%) | A (Mortality 100%)
C[S+]([O-])CC(C)(C)NC(=O)c1c(I)cccc1C(=O)Nc1ccc(Oc2ncc(C(F)(F)F)cc2Cl)cc1Cl (stereo not shown) [Compound 1-96] | A (Mortality 100%) | A (Mortality 100%) | E (Mortality 49-0%) | A (Mortality 100%)
CSCC(C)(C)NC(=O)c1c(I)cccc1C(=O)Nc1ccc(OC(F)(F)C(F)Cl)cc1Cl (stereo not shown) [Compound 1-58] | E (Mortality 49-0%) | A (Mortality 100%) | E (Mortality 49-0%) | A (Mortality 100%)
CC(C)(CS(C)(=O)=O)NC(=O)c1c(I)cccc1C(=O)Nc1ccc(Oc2ncc(C(F)(F)F)cc2Cl)cc1Cl [Compound 1-97] | A (Mortality 100%) | A (Mortality 100%) | E (Mortality 49-0%) | A (Mortality 100%)
CSCC(C)(C)NC(=O)c1c(I)cccc1C(=O)Nc1ccc(OC(F)(F)C(F)C(F)(F)F)c(Cl)c1Cl (stereo not shown) [Compound 1-66, 3-iodo-N^1-[2,3-dichloro-4-(1,1,2,3,3,3-hexafluoropropoxy)phenyl]-N^2-[(1,1-dimethyl-2-methylthio)ethyl]phthalamide] | E (Mortality 49-0%) | A (Mortality 100%) | E (Mortality 49-0%) | A (Mortality 100%)
CC(C)(CS(C)(=O)=O)NC(=O)c1c(I)cccc1C(=O)Nc1ccc(Oc2ncc(C(F)(F)F)cc2Cl)c(Cl)c1Cl [Compound 1-100] | A (Mortality 100%) | A (Mortality 100%) | E (Mortality 49-0%) | A (Mortality 100%)
